According to the supplement of paper PMC11061612:

Columns and labels:
Experiment in all cases: combination Emax (second highest fraction inhibited in the dose matrix, 72 h); higher = more inhibition; extreme values may be limits of the assay
EW-11 (Ewing's Sarcoma) = test system: EW-11 (Ewing's Sarcoma)
Summary of the method: (§1)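 Bliss excess equals the observed combination effect minus the expected value EA + EB − EA·EB, where EA and EB are the effects of each agent alone. Combination Emax is the second-highest inhibition within the matrix. Inhibition was scaled from CellTiter-Glo 2.0 luminescence, with 0 set by vehicle wells and 1 by blank wells, after 72 hours of two-drug dosing of cells plated in 1536-well plates.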

[1] = test system: LNZTA3WT4 (Low Grade Glioma)
Summary of the method: as §1

BPH-1 (Non-Cancerous) = test system: BPH-1 (Non-Cancerous)
Summary of the method: as §1

[2] = test system: MHH-CALL-2 (B-Lymphoblastic Leukemia)
Summary of the method: as §1

[3] = test system: YAPC (Pancreatic Carcinoma)
Summary of the method: as §1

[4] = test system: ALL-PO (B-Lymphoblastic Leukemia)
Summary of the method: as §1

[5] = test system: KMRC-20 (Kidney Carcinoma)
Summary of the method: as §1

[6] = test system: LCLC-97TM1 (Non-Small Cell Lung Carcinoma)
Summary of the method: as §1

[7] = test system: HH (T-Cell Non-Hodgkin's Lymphoma)
Summary of the method: as §1

[8] = test system: BE-13 (T-Lymphoblastic Leukemia)
Summary of the method: as §1

BE2-M17 (Neuroblastoma) = test system: BE2-M17 (Neuroblastoma)
Summary of the method: as §1

[9] = test system: WSU-NHL (B-Cell Non-Hodgkin's Lymphoma)
Summary of the method: as §1

[10] = test system: ESS-1 (Other Solid Carcinomas)
Summary of the method: as §1

MPP-89 (Mesothelioma) = test system: MPP-89 (Mesothelioma)
Summary of the method: as §1

[11] = test system: TGBC1TKB (Biliary Tract Carcinoma)
Summary of the method: as §1

[12] = test system: OVCAR-5 (Ovarian Carcinoma)
Summary of the method: as §1

GAMG (Glioblastoma) = test system: GAMG (Glioblastoma)
Summary of the method: as §1

[13] = test system: NUGC-4 (Gastric Carcinoma)
Summary of the method: as §1

[14] = test system: KYAE-1 (Esophageal Adenocarcinoma)
Summary of the method: as §1

[15] = test system: SNU-16 (Gastric Carcinoma)
Summary of the method: as §1

Row | Structure (SMILES) | combination Emax (EW-11 (Ewing's Sarcoma)) | combination Emax [1] | combination Emax (BPH-1 (Non-Cancerous)) | combination Emax [2] | combination Emax [3] | combination Emax [4] | combination Emax [5] | combination Emax [6] | combination Emax [7] | combination Emax [8] | combination Emax (BE2-M17 (Neuroblastoma)) | combination Emax [9] | combination Emax [10] | combination Emax (MPP-89 (Mesothelioma)) | combination Emax [11] | combination Emax [12] | combination Emax (GAMG (Glioblastoma)) | combination Emax [13] | combination Emax [14] | combination Emax [15]
1 | CN(C)CCCOc1ccc(-c2ccc3ncc4c(c3c2)n(C2CCOCC2)c(=O)n4C)cn1 [AZD0156] + O=C(c1cc(Cc2n[nH]c(=O)c3ccccc23)ccc1F)N1CCN(C(=O)C2CC2)CC1 [Olaparib] (first compound max 3 µM, partner max 3 µM) | 0.539 | 0.206 | 0.512 | 0.228 | 0.283 | 0.505 | 0.189 | 0.109 | 0.038 | 0.428 | 0.331 | 0.879 | 0.489 | 0.235 | 0.157 | 0.45 | 0.336 | 0.286 | 0.271 | –
2 | C=CCn1c(=O)c2cnc(Nc3ccc(N4CCN(C)CC4)cc3)nc2n1-c1cccc(C(C)(C)O)n1 [AZD1775] + C1CN(CCC1(C(=O)N[C@@H](CCO)C2=CC=C(C=C2)Cl)N)C3=NC=NC4=C3C=CN4 [Capivasertib] (first compound max 3 µM, partner max 3 µM) | 0.69 | 0.804 | 0.929 | 0.869 | 0.591 | 0.754 | 0.711 | 0.793 | 0.567 | 0.968 | 0.906 | 1 | 0.949 | 0.685 | 0.434 | 0.572 | 0.829 | 0.574 | 0.579 | –
3 | CN(CCO)CC[C@H](CSc1ccccc1)Nc1ccc(S(=O)(=O)NC(=O)c2ccc(N3CCC([C@@H](O)c4ccccc4-c4ccc(Cl)cc4)CC3)cc2)cc1S(=O)(=O)C(F)(F)F [AZD4320] + C1CN(CCC1(C(=O)N[C@@H](CCO)C2=CC=C(C=C2)Cl)N)C3=NC=NC4=C3C=CN4 [Capivasertib] (first compound max 1 µM, 7x7, partner max 3 µM) | 0.837 | 0.218 | 0.562 | 0.311 | 0.0702 | 0.97 | 0.245 | 0.335 | 0.417 | 0.994 | 0.374 | 1 | 0.579 | 0.198 | 0.466 | 0.17 | 0.407 | 0.0873 | 0.65 | 0.27
4 | CN(CCO)CC[C@H](CSc1ccccc1)Nc1ccc(S(=O)(=O)NC(=O)c2ccc(N3CCC([C@@H](O)c4ccccc4-c4ccc(Cl)cc4)CC3)cc2)cc1S(=O)(=O)C(F)(F)F [AZD4320] + C=CCn1c(=O)c2cnc(Nc3ccc(N4CCN(C)CC4)cc3)nc2n1-c1cccc(C(C)(C)O)n1 [AZD1775] (first compound max 1 µM, partner max 1 µM) | 0.949 | 0.889 | 0.709 | 0.739 | 0.278 | 1 | 0.61 | 0.933 | 0.802 | 1 | 0.92 | 0.995 | 1 | 0.628 | 0.508 | 0.357 | 0.643 | 0.374 | 0.843 | 0.917
5 | CN(CCO)CC[C@H](CSc1ccccc1)Nc1ccc(S(=O)(=O)NC(=O)c2ccc(N3CCC([C@@H](O)c4ccccc4-c4ccc(Cl)cc4)CC3)cc2)cc1S(=O)(=O)C(F)(F)F [AZD4320] + CN(C)CCCOc1ccc(-c2ccc3ncc4c(c3c2)n(C2CCOCC2)c(=O)n4C)cn1 [AZD0156] (first compound max 1 µM, 7x7, partner max 1 µM) | 0.854 | 0.0987 | 0.474 | 0.391 | 0.129 | 0.97 | 0.113 | 0.107 | 0.274 | 0.977 | 0.258 | 0.866 | 0.478 | 0.236 | 0.492 | 0.164 | 0.197 | 0.174 | 0.338 | 0.322
6 | CN(CCO)CC[C@H](CSc1ccccc1)Nc1ccc(S(=O)(=O)NC(=O)c2ccc(N3CCC([C@@H](O)c4ccccc4-c4ccc(Cl)cc4)CC3)cc2)cc1S(=O)(=O)C(F)(F)F [AZD4320] + C[C@@H](Nc1cc(F)cc(F)c1)c1cc(C(=O)N(C)C)cc2c(=O)cc(N3CCOCC3)oc12 [AZD8186] (first compound max 1 µM, 7x7, partner max 3 µM) | 0.938 | 0.247 | 0.733 | 0.917 | 0.237 | 1 | 0.381 | 0.343 | 0.455 | 1 | 0.722 | 1 | 0.825 | 0.494 | 0.802 | 0.351 | 0.615 | 0.564 | 0.387 | 0.658
7 | CN(CCO)CC[C@H](CSc1ccccc1)Nc1ccc(S(=O)(=O)NC(=O)c2ccc(N3CCC([C@@H](O)c4ccccc4-c4ccc(Cl)cc4)CC3)cc2)cc1S(=O)(=O)C(F)(F)F [AZD4320] + Cn1cnc2c(F)c(Nc3ccc(Br)cc3Cl)c(C(=O)NOCCO)cc21 [Selumetinib] (first compound max 1 µM, 7x7, partner max 3 µM) | 0.934 | 0.329 | 0.784 | 0.965 | 0.194 | 1 | 0.261 | 0.489 | 0.3 | 0.995 | 0.852 | 0.885 | 0.851 | 0.399 | 0.679 | 0.613 | 0.296 | 0.766 | 0.377 | 0.649
8 | COc1nnc2ccc(N3CCC(c4ccc(OCCN5CCN(C)C(=O)[C@H]5C)cc4)CC3)nn12 [AZD5153] + C=CCn1c(=O)c2cnc(Nc3ccc(N4CCN(C)CC4)cc3)nc2n1-c1cccc(C(C)(C)O)n1 [AZD1775] (first compound max 1 µM, partner max 1 µM) | 0.572 | 0.643 | 0.88 | 0.742 | 0.461 | 0.995 | 0.694 | 0.848 | 0.47 | 1 | 0.964 | 0.952 | 0.898 | 0.482 | 0.296 | 0.563 | 0.665 | 0.641 | 0.0798 | 0.871
9 | Cc1c2c(nn1C)CSCc1cc(n(C)n1)CSc1cc(c3ccccc3c1)OCCCc1c(C(=O)O)n(C)c3c-2c(Cl)ccc13 [AZD5991] + C[C@@H]1COCCN1C2=NC(=NC(=C2)C3(CC3)[S@](=N)(=O)C)C4=C5C=CNC5=NC=C4 [AZD6738] (first compound max 1 µM, 7x7, partner max 10 µM) | 0.932 | 0.761 | 0.521 | 1 | 0.327 | 1 | 0.516 | 0.894 | 0.759 | – | 0.991 | 0.994 | 0.958 | 0.596 | 0.403 | 0.645 | 0.579 | 0.561 | 0.207 | 1
10 | COc1cccc(OCCCN)c1-c1cc(Nc2cnc(C#N)cn2)n[nH]1 [Prexasertib] + Cc1cc2ncnn2cc1Nc1ncc2c(n1)n(C1CCOCC1)c(=O)n2C [AZD7648] (first compound max 1 µM, 7x7, partner max 10 µM) | 0.742 | 0.9 | 0.319 | – | 0.585 | 0.993 | 0.858 | 0.938 | 0.65 | 0.952 | 0.983 | 1 | 1 | 0.734 | 0.483 | 0.829 | 0.777 | 0.493 | 0.467 | 0.998
11 | COc1cccc(OCCCN)c1-c1cc(Nc2cnc(C#N)cn2)n[nH]1 [Prexasertib] + O=C(c1cc(Cc2n[nH]c(=O)c3ccccc23)ccc1F)N1CCN(C(=O)C2CC2)CC1 [Olaparib] (first compound max 1 µM, 7x7, partner max 10 µM) | 0.792 | 0.885 | 0.497 | – | 0.597 | 0.979 | 0.893 | 0.936 | 0.542 | 0.978 | 0.958 | 1 | 1 | 0.714 | 0.446 | 0.693 | 0.83 | 0.415 | 0.56 | 1
12 | CCc1c2c(nc3ccc(O)cc13)-c1cc3c(c(=O)n1C2)COC(=O)[C@]3(O)CC [SN-38] + CN(C)CCCOc1ccc(-c2ccc3ncc4c(c3c2)n(C2CCOCC2)c(=O)n4C)cn1 [AZD0156] (first compound max 0.3 µM, 7x7, partner max 1 µM) | 0.739 | 0.449 | 0.94 | – | 0.51 | 0.985 | 0.827 | 0.693 | 0.0821 | 0.748 | 0.887 | 1 | 1 | 0.632 | 0.366 | 0.567 | 0.737 | 0.287 | 0.105 | 0.927
